# Reference: patent EP0821956A1, “Method for treating disruptive behavior disorders” (ELI LILLY AND COMPANY, priority 1996, dated 1998)
# pKi: −log10 of the molar value.
# How the values were obtained:
# [1] = biological target: ^3H-oxotremorine-M binding (muscarinic receptors); experiment: 3H-oxotremorine-M binding study; conditions: inhibition of binding of ^3H-oxotremorine-M; read-out: inhibition constant (Ki)
# m4 receptors = m4 receptors (Homo sapiens, UniProt P08173); format: cell-based; conditions: CHO m4 cells treated with pertussis toxin
# Chain of m4 receptors (P08173 whole entry): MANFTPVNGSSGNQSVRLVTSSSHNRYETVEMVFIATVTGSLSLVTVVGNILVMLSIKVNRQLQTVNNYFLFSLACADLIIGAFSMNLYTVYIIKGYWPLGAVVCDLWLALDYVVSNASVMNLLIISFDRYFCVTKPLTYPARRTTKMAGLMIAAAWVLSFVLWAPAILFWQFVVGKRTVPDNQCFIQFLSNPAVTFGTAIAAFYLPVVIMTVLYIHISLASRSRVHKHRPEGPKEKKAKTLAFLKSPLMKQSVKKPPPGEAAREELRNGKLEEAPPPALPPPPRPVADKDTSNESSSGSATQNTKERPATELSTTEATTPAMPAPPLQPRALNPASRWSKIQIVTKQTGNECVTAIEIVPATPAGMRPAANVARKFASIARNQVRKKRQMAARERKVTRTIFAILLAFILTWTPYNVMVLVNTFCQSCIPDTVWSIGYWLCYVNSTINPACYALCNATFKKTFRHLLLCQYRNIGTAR
# D2 receptor subtype = D2 receptor subtype (Homo sapiens, UniProt P14416); experiment: pharmacological studies at the D2 receptor subtype
# Chain of D2 receptor subtype (P14416 whole entry): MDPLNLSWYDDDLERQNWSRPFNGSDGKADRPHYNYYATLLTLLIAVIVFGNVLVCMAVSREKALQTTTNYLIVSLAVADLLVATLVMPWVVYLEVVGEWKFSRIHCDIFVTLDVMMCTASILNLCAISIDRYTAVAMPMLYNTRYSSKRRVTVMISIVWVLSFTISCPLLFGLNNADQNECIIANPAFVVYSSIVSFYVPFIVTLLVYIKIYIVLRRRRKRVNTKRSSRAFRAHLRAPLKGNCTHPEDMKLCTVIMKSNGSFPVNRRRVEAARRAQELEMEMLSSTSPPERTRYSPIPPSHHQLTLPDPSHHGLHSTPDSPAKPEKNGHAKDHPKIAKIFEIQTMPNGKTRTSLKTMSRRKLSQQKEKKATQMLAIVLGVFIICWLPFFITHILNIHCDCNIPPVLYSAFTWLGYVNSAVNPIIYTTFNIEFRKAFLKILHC
smiles,measurement,setting,value
"CCCCCCOc1nsnc1C1=CCCN(C)C1 [xanomeline, 3-(4-hexyloxy-1,2,5-thiadiazol-3-yl)-1,2,5,6-tetrahydro-1-methylpyridine]",pKi,[1],8.70
same,formation of cAMP,m4 receptors,efficaciously and potently stimulated the formation of cAMP
same,activity at the D2 receptor subtype,D2 receptor subtype,active
